Drawing on patent US20230382904A1, “SUBSTITUTED 4-([1,2,4]TRIAZOLO[1,5-a]PYRIDIN-6-YL)THIOPHENE-2-CARBOXAMIDE DERIVATIVES AND USE THEREOF” (The Johns Hopkins University, priority 2020, published 2023), this text covers IC50 for 52 molecules.

In general, IC50 refers to the concentration needed to halve the response being measured. A low value points to inhibition by little substance.

The target of one assay is DLK (Homo sapiens (Human), UniProt Q12852). As to the kind of experiment: DLK biochemical assay (TR-FRET, MKK7 phosphorylation). The gist of the method:
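Catalytic-domain DLK (10 nM) phosphorylates His-MKK7 (15 nM) with 60 μM ATP, 90 min at RT, in pH 7.5 HEPES buffer. Phospho-T275/S277 read by TR-FRET (Eu anti-phospho donor, XL665 anti-His acceptor) after 16 h detection, at 37° C. in 1536 or 4° C. in 384 format.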

A further assay has as its target LZK (Homo sapiens (Human), UniProt O43283). As to the kind of experiment: LZK biochemical assay (TR-FRET, MKK7 phosphorylation). In a few lines: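 Catalytic-domain LZK (10 nM) phosphorylated His-MKK7 (15 nM) with 15 μM ATP for 90 min at RT. Phospho-T275/S277 detected by Eu-anti-phospho-MKK7/XL665-anti-His TR-FRET after 16 h at 32° C, using the 665/Eu ratio. Buffer: 50 mM Hepes pH 7.5, 10 mM MgCl2, 1 mM DTT.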
(In general: In TR-FRET formats the signal depends on donor and acceptor labels being close together.)

LZK, sequence (O43283 168-409): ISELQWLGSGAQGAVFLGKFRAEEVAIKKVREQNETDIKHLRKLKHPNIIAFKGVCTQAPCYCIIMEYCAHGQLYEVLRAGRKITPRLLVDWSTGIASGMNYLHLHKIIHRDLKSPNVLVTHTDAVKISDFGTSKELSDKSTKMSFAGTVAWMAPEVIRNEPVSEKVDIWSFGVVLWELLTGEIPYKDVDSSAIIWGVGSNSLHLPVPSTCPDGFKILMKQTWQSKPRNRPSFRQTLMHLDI
DLK, sequence (Q12852 1-520): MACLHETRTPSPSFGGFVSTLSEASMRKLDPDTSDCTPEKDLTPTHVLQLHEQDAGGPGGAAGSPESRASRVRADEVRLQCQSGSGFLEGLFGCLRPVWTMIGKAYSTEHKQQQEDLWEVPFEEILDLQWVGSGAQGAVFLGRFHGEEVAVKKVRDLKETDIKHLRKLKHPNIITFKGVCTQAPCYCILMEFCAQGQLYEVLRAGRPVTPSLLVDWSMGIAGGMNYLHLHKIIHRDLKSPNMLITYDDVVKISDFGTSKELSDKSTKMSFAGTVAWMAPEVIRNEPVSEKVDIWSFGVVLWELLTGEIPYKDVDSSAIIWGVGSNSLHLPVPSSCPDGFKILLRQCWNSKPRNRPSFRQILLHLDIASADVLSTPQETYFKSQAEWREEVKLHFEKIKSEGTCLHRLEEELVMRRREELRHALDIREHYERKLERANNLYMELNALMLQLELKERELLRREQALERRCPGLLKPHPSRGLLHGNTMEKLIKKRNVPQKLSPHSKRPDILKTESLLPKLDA

Regarding `C[C@H](NC(=O)c1cc(-c2cc(C(=O)NC3CNC(=O)C3)c3nc(N)nn3c2)cs1)c1ccccc1` (single isomer, unassigned) [Compound 54], the IC50 on DLK is 2.3 nM; against LZK, 30 nM.
On to `COc1cccc(CNC(=O)c2cc(-c3ccc4nc(N)nn4c3)cs2)n1` [Compound 254], for which the figures for the half-inhibitory concentration (IC50) against DLK and against LZK were 1000 nM and 10000 nM, respectively.
For the molecule `CCN1CCC[C@@H](NC(=O)c2cc(-c3ccc4nc(N)nn4c3)cs2)C1` [Compound 287], the half-inhibitory concentration (IC50) on DLK is 5700 nM; against LZK it was greater than 30000 nM.
The corresponding values for `Nc1nc2c(C(=O)NCC(F)(F)F)cc(-c3csc(C(=O)NCc4ccccc4)c3)cn2n1` [Compound 53] are 280 nM and 6100 nM.
As to `Nc1nc2c(C(=O)NC3COC3)cc(-c3csc(C(=O)NCc4ccc(F)cc4)c3)cn2n1` [Compound 74], the figures for the half-maximal inhibitory concentration (IC50) against DLK and against LZK were 320 nM and 5600 nM, respectively.
In the case of `CC[C@@H](NC(=O)c1cc(-c2csc(C(=O)N[C@@H](C)c3ccc(F)cc3)c2)cn2nc(N)nc12)C(F)(F)F` [Compound 127], the IC50 on DLK was found to be 930 nM; against LZK, 8300 nM.
The corresponding values for `C[C@@H](CO)NC(=O)c1cc(-c2ccc3nc(N)nn3c2)cs1` [Compound 345] are 2300 nM and greater than 30000 nM.
With `Nc1nc2c(C(=O)NC3CNC(=O)C3)cc(-c3csc(C(=O)NCc4ccccc4)c3)cn2n1` (centres unmarked) [Compound 38], the IC50 worked out at 17 nM against DLK and 130 nM on LZK.
Take `C[C@H](NC(=O)c1cc(-c2ccc3nc(N)nn3c2)cs1)c1ccccc1` [Compound 323]: the results for the IC50 against DLK and at LZK were 164 nM and 2950 nM, respectively.
Take `COc1cncc(CNC(=O)c2cc(-c3ccc4nc(N)nn4c3)cs2)c1` [Compound 235]: the IC50 on DLK worked out at 370 nM; on LZK, 23000 nM.
As to `CC[C@H](C)NC(=O)c1cc(-c2csc(C(=O)N[C@H](CC)c3ccc(F)cc3)c2)cn2nc(N)nc12` [Compound 133], the IC50 against DLK was determined as 10 nM; on LZK, 240 nM.
Turning to `CC[C@H](NC(=O)c1cc(-c2cc(C(=O)NC(C)C)n3nc(N)nc3c2)cs1)c1ccccc1` [Compound 152], the values for the half-maximal inhibitory concentration (IC50) on DLK and at LZK were 4.15 nM and 57 nM, respectively.
Regarding `COCc1cc(-c2csc(C(=O)NCc3ccc(F)cc3)c2)cn2nc(N)nc12` [Compound 387], the concentration for half-maximal inhibition (IC50) at DLK is 750 nM; at LZK it was 2800 nM.
As for `Nc1nc2ccc(-c3csc(C(=O)NC4CCCCCC4)c3)cn2n1` [Compound 174], the figures for the concentration for half-maximal inhibition (IC50) against DLK and on LZK were 440 nM and greater than 30000 nM, respectively.
For `COc1cccc(CNC(=O)c2cc(-c3cc(C(F)(F)F)c4nc(N)nn4c3)cs2)c1` [Compound 380], the IC50 on DLK was 1100 nM; on LZK, greater than 30000 nM.
`COCCCNC(=O)c1cc(-c2ccc3nc(N)nn3c2)cs1` [Compound 271]: the figures for the 50% inhibitory concentration (IC50) on DLK and at LZK were 3500 nM and greater than 30000 nM, respectively.
The corresponding values for `C[C@H](NC(=O)c1cc(-c2cc(C(=O)NC3CNC(=O)C3)c3nc(N)nn3c2)cs1)c1ccc(F)cc1` (single isomer, unassigned) [Compound 48] are 2.4 nM and 77 nM.
As for `CC(C)NC(=O)c1cc(-c2csc(C(=O)NC3CCCCC3)c2)cn2nc(N)nc12` [Compound 12], the IC50 amounted to 21 nM against DLK and 400 nM on LZK.
For the molecule `Cc1cc(-c2csc(C(=O)NC3CCCCC3)c2)cn2nc(N)nc12` [Compound 374], the results for the IC50 against DLK and at LZK were 280 nM and 9300 nM, respectively.
For `Nc1nc2ccc(-c3csc(C(=O)NCc4cccc(OCC(F)(F)F)c4)c3)cn2n1` [Compound 204], in that order: 300 nM and greater than 30000 nM.
Take `Nc1nc2ccc(-c3csc(C(=O)NC4CCCCC4)c3)cn2n1` [Compound 169]: the concentration for half-maximal inhibition (IC50) at DLK is 1100 nM; against LZK, greater than 30000 nM.
As for `CC(C)NC(=O)c1cc(-c2csc(C(=O)N[C@H]3CCCc4ccccc43)c2)cn2nc(N)nc12` [Compound 122], the figures for the half-inhibitory concentration (IC50) against DLK and against LZK were 6 nM and 360 nM, respectively.
As for `C[C@@H](CO)NC(=O)c1cc(-c2csc(C(=O)N(C)[C@@H](C)c3ccc(F)cc3)c2)cn2nc(N)nc12` [Compound 110], the concentration for half-maximal inhibition (IC50) against DLK was 82 nM; against LZK, 470 nM.
For the molecule `CC[C@H](NC(=O)c1cc(-c2cc(C(=O)NC(C)C)n3nc(N)nc3c2)cs1)c1ccc(F)cc1` [Compound 154], the IC50 on DLK was found to be 4.9 nM; on LZK, 89 nM.
On to `Nc1nc2ccc(-c3csc(C(=O)NC(CO)c4ccc(F)cc4)c3)cn2n1` (centres unmarked) [Compound 337], for which the IC50 against DLK is 480 nM; at LZK, 1400 nM.
The corresponding values for `CC(C)NC(=O)c1cc(-c2csc(C(=O)N[C@@H](C)c3ccccc3)c2)cc2nc(N)nn12` [Compound 146] are 12 nM and 71 nM.
Regarding `CC(C)(C)NC(=O)c1cc(-c2csc(C(=O)NCc3ccccc3)c2)cn2nc(N)nc12` [Compound 16], the IC50 at DLK was found to be 37 nM; on LZK, 130 nM.
Regarding `C[C@H](NC(=O)c1cc(-c2cc(C(=O)NC3CCC3)c3nc(N)nn3c2)cs1)c1ccc(F)cc1` [Compound 60], the half-maximal inhibitory concentration (IC50) came out at 5.25 nM at DLK and 295 nM on LZK.
In the case of `CN1C2CCC1CC(NC(=O)c1cc(-c3ccc4nc(N)nn4c3)cs1)C2` (centres unmarked) [Compound 201], the values for the concentration for half-maximal inhibition (IC50) at DLK and against LZK were 2800 nM and greater than 30000 nM, respectively.
Consider `Nc1nc2ccc(-c3csc(C(=O)NC4COc5ccc(F)cc54)c3)cn2n1` (centres unmarked) [Compound 306], for which the IC50 against DLK came to 130 nM; against LZK it was 2500 nM.
Turning to `C[C@@H](CO)NC(=O)c1cc(-c2csc(C(=O)NCc3nc4ccccc4o3)c2)cn2nc(N)nc12` [Compound 40], the IC50 at DLK came out at 39 nM; against LZK it was 380 nM.
Turning to `CC[C@H](NC(=O)c1cc(-c2csc(C(=O)NCc3ccc(F)cc3)c2)cn2nc(N)nc12)C(F)(F)F` [Compound 144-4], the IC50 against DLK stood at 800 nM; against LZK, 2500 nM.
In the case of `COc1cccc(CNC(=O)c2cc(-c3ccc4nc(N)nn4c3)c(C)s2)c1` [Compound 311], the figures for the half-inhibitory concentration (IC50) at DLK and against LZK were 19000 nM and greater than 30000 nM, respectively.
For the molecule `Nc1nc2ccc(-c3csc(C(=O)NCC4COCCO4)c3)cn2n1` (centres unmarked) [Compound 209], the IC50 on DLK was 2500 nM; on LZK, greater than 30000 nM.
The corresponding values for `CCOc1cccc(CNC(=O)c2cc(-c3ccn4nc(N)nc4c3)cs2)c1` [Compound 367] are 300 nM and 28000 nM.
As to `Nc1nc2ccc(-c3csc(C(=O)NCc4ccc(CN5CCOCC5)cc4)c3)cn2n1` [Compound 342], the IC50 at DLK was 520 nM; at LZK, 17000 nM.
With `CN(C)C(=O)c1cc(-c2csc(C(=O)NCc3ccc(F)cc3)c2)cn2nc(N)nc12` [Compound 1], the IC50 on DLK was 20000 nM; at LZK it was greater than 30000 nM.
Consider `C[C@H](NC(=O)c1cc(-c2cc(C(=O)NC3CCNC3)c3nc(N)nn3c2)cs1)c1ccccc1` (mixture of isomers) [Compound 34], for which the IC50 against DLK stood at 55 nM; at LZK, 880 nM.
The corresponding values for `CC(C)(C)NC(=O)c1cc(-c2csc(C(=O)NCc3nc4ccccc4o3)c2)cn2nc(N)nc12` [Compound 23] are 300 nM and 630 nM.
Regarding `Nc1nc2c(C(=O)NCC(F)(F)F)cc(-c3csc(C(=O)NCc4ccc(F)cc4)c3)cn2n1` [Compound 61], the 50% inhibitory concentration (IC50) on DLK was found to be 570 nM; against LZK it was 3700 nM.
Turning to `COc1ccc2c(c1)C(NC(=O)c1cc(-c3ccc4nc(N)nn4c3)cs1)CC(C)(C)O2` (centres unmarked) [Compound 268], the IC50 at DLK worked out at 180 nM; against LZK, 22000 nM.
For `CC(C)NC(=O)c1cc(-c2csc(C(=O)NC3COC3)c2)cn2nc(N)nc12` [Compound 129], in that order: 290 nM and 800 nM.
On to `Nc1nc2ccc(-c3csc(C(=O)NC(c4ccccc4)C4CC4)c3)cn2n1` (centres unmarked) [Compound 327], for which the IC50 against DLK is 42 nM; against LZK, 6100 nM.
Regarding `CC[C@@H](NC(=O)c1cc(-c2cc(C(=O)NC(C)C)c3nc(N)nn3c2)cs1)c1ccc(F)cc1` [Compound 134], the results for the IC50 against DLK and at LZK were 36 nM and 680 nM, respectively.
In the case of `C[C@H](NC(=O)c1cc(-c2cc(C(=O)N[C@H](CO)C(F)(F)F)c3nc(N)nn3c2)cs1)c1ccc(F)cc1` [Compound 109], the half-inhibitory concentration (IC50) turned out to be 7.5 nM against DLK and 120 nM at LZK.
`COc1cccc(CNC(=O)c2cc(-c3cc(F)c4nc(N)nn4c3)cs2)c1` [Compound 381]: the half-maximal inhibitory concentration (IC50) on DLK was 380 nM; at LZK it was greater than 30000 nM.
Take `CC(C)NC(=O)c1cc(-c2csc(C(=O)NC3(c4ccc(F)cc4)CCCC3)c2)cn2nc(N)nc12` [Compound 123]: the half-inhibitory concentration (IC50) against DLK is 2.9 nM; on LZK it was 83 nM.
On to `COc1cccc([C@@H](C)NC(=O)c2cc(-c3ccc4nc(N)nn4c3)cs2)c1` [Compound 264], for which the figures for the IC50 against DLK and against LZK were 505 nM and greater than 30000 nM, respectively.
On to `Nc1nc2cc(-c3csc(C(=O)NCc4ccc(F)cc4)c3)cc(C(=O)O)n2n1` [Compound 370], for which the IC50 against DLK is 4400 nM; on LZK it was greater than 30000 nM.
`C[C@H](NC(=O)c1cc(-c2ccc3nc(N)nn3c2)cs1)c1cccc(Cl)c1` [Compound 265]: the values for the half-maximal inhibitory concentration (IC50) at DLK and against LZK were 130 nM and greater than 30000 nM, respectively.
Turning to `Nc1nc2ccc(-c3csc(C(=O)NCC4CCCOC4)c3)cn2n1` (centres unmarked) [Compound 197], the IC50 against DLK is 1600 nM; against LZK, greater than 30000 nM.
Regarding `COc1cccc(C(C)(C)NC(=O)c2cc(-c3cc(C(=O)NC(C)C)c4nc(N)nn4c3)cs2)c1` [Compound 125], the IC50 is 18 nM against DLK and 220 nM at LZK.
